According to patent US8809280B2, “Therapeutic peptides” (Lytix Biopharma AS, priority 2009, dated 2014):
Like-named read-outs stand apart in the source and are kept apart here.

Assays:
Type in all cases: cell-based
[1] = tested on: methicillin resistant Staphylococcus aureus (ATCC 33591); test: microbe, parasite or virus in culture; conditions: for MIC: Staphylococcus aureus; for Therapeutic index MRSA: EC50 RBC divided by MIC
Protocol: (§1) The antimicrobial testing was conducted by TosLab A/S (Tromsø, Norway). Each compound was diluted to 1 mg/ml in water and tested in duplicates at 200, 100, 50, 35, 15, 10, 5, 2.5, 1, 0.5 μg/ml except 4n which was tested at 50, 35, 15, 10, 5, 2.5, 1, 0.5 μg/ml due to solubility problems. All tested compounds were di TFA salts.
(§2) The bacterial strains were grown in 2% Bacto Peptone water until exponential growth was achieved. […] A bacterial concentration of 2×10^6 cfu/ml was used. Both negative control (no peptide) and positive control (Gentamicin) was used for all bacterial strains. Growth or no growth was judged by the turbidity of the wells.
Methicillin resistant Staphylococcus aureus (ATCC 33591)
(§3) Antimicrobial assays: 200 μg/ml
(§4) Suitable methodologies are described in Example 1.
(§5) Each compound was tested in duplicates at 200, 100, 50, 35, 15, 10, 5, 2.5, 1, 0.5 μg/ml. All tested compounds were di-trifluoroacetic acid salts.

[2] = tested on: methicillin resistant Staphylococcus epidermidis (ATCC 27626); test: microbe, parasite or virus in culture; conditions: for MIC: Staphylococcus epidermidis, ATCC 27626 / MRSE; for Therapeutic index MRSE: EC50 RBC divided by MIC
Protocol: as §1, §2
Methicillin resistant Staphylococcus epidermidis (ATCC 27626)
as §3, §4, §5

[3] = tested on: Escherichia coli (ATTC 25922); test: microbe, parasite or virus in culture; conditions: for MIC: Escherichia coli; for Therapeutic index E. coli: EC50 RBC divided by MIC
Protocol: as §1, §2
Escherichia coli (ATTC 25922)
as §3, §4, §5

human red blood cells = test: cells; conditions: Erythrocyte, highest concentration tested 1000 μg/ml
Protocol: The hemolytic testing against human erythrocytes was conducted by Lytix Biopharma A/S (Tromso, Norway). Each compound was tested from a concentration of 1 mg/ml and lower, except 4k and 4n which was only tested up to 0.5 mg/ml due to solubility problems. 8 mL of blood was collected from adult healthy male donors. The blood was divided equally and distributed in a commercial available EDTA containing test tube (BD vacutainer, 7.2 mg K2 EDTA) and in a 10 mL reaction vial containing 40 μL of a heparin solution (1000 U/mL in 0.9% sodium chloride). After 30 minutes the hematocrit of the EDTA treated blood was determined. The heparinized blood was centrifuged for 10 minutes at 1500 rpm and the supernatant removed. Subsequently the RBCs were washed with prewarmed PBS three times, and diluted to 10% hematocrit. The compounds dissolved in PBS (concentration 1 μg/mL to 1000 µg/mL) and the erythrocytes were incubated under agitation at 37° C. for one hour. A positive control with an end concentration of 0.1% TRITON X-100 (nonionic surfactant) and a negative control containing pure PBS buffer were included. The samples were centrifuged (4000 rpm) for 5 minutes and the absorption of the supernatant was measured at 405 nm. The values given in Table 1A correspond to 50% hemolysis.
The plasma fraction of heparinized human blood was first removed by centrifugation and three additional washing steps with 37° C. pre-warmed phosphate buffered saline (PBS). Subsequently, the human RBC were diluted to 10% hematocrit and the β^2,2-amino acid derivatives were dissolved in PBS providing concentrations ranging from 1-1000 μg/mL. The diluted RBC were added to the compound solutions to a final erythrocyte concentration of 1% v/v. PBS and TRITON X-100 (non-ionic surfactant), in a final concentration of 0.1% v/v, were included as negative and positive control. After 1 hour agitated incubation at 37° C. the samples were centrifuged at 4000 rpm for 5 min. Release of hemoglobin was determined by measuring the absorbance of the supernatant at 405 nm. Hemolytic activity was calculated as the ratio of treated sample with β^2,2-amino acid derivative and tenside treated sample according to the formula: […]

[4] = tested on: Staphylococcus aureus (ATTC 25923); test: microbe, parasite or virus in culture; conditions: for MIC: Staphylococcus aureus; for Therapeutic index S. aureus: EC50 RBC divided by MIC
Protocol: as §1, §2
Staphylococcus aureus (ATTC 25923)
as §3, §4, §5

[5] = ATCC 33591 / MRSA, Example 2, values separated by / are repeat tests, read-out: Antimicrobial potency (MIC) MRSA
[6] = Example 2, values separated by / are repeat tests, read-out: Antimicrobial potency (MIC) MRSE
[7] = Example 2, values separated by / are repeat tests, read-out: Antimicrobial potency (MIC) E. coli
[8] = Homo sapiens, Example 2, * low solubility in the test media, read-out: Toxicity RBC (EC50)
[9] = Example 2, values separated by / are repeat tests, read-out: Antimicrobial potency (MIC) S. aureus
[10] = ATCC33591, Example 4, ATCC 33591, di-trifluoroacetate salts, highest concentration tested 200 μg/ml, read-out: MIC MTRSA
[11] = Example 4, ATCC 27626, di-trifluoroacetate salts, highest concentration tested 200 μg/ml, read-out: MIC MRSE
[12] = ATCC25922, Example 4, ATCC 25922, di-trifluoroacetate salts, highest concentration tested 200 μg/ml, read-out: MIC E. coli
[13] = Example 4, hemolytic activity, human red blood cells, read-out: EC50 RBC
[14] = ATCC25923, Example 4, ATCC 25923, di-trifluoroacetate salts, highest concentration tested 200 μg/ml, read-out: MIC S. aureus

Structure (SMILES) | MIC [1, 5] [µg/mL] | MIC [2, 6] [µg/mL] | MIC [3, 7] [µg/mL] | EC50 (human red blood cells; [8]) [µg/mL] | MIC [4, 9] [µg/mL] | MIC [1, 10] [µM] | MIC [2, 11] [µM] | MIC [3, 12] [µM] | EC50 (human red blood cells; [13]) | MIC [4, 14] [µM] | Therapeutic index MRSA [1] | Therapeutic index MRSE [2] | Therapeutic index E. coli [3] | Therapeutic index S. aureus [4]
Cc1cc(C)cc(CC(CN)(Cc2cc(C)cc(C)c2)C(=O)NCCN(C)C)c1 [Compound 25, 3-amino-N-(2-(dimethylamino)-ethyl)-2,2-bis(3,5-dimethylbenzyl)-propanamide] | 50 | 10 | 50 | 820 | 100 |  |  |  |  |  |  |  |  | 
CN(C)CCNC(=O)C(CN)(CCCc1ccccc1)CCCc1ccccc1 [Compound 26, 2-(aminomethyl)-N-(2-(dimethyl-amino)ethyl)-5-phenyl-2-(3-phenyl-propyl)-pentanamide] | 35 | 35 | 100 | 316 | 35 |  |  |  |  |  |  |  |  | 
CN(C)CCNC(=O)C(CN)(Cc1ccc2ccccc2c1)Cc1ccc2ccccc2c1 [Compound 27, 3-amino-N-(2-(dimethylamino)ethyl)-2,2-bis(naphthalen-2-ylmethyl)propanamide] | 5 | 5 | 15 | 145 | 5 |  |  |  |  |  |  |  |  | 
CN(C)CCNC(=O)C(CN)(Cc1ccc(C(F)(F)F)cc1)Cc1ccc(C(F)(F)F)cc1 [Compound 28, 3-amino-N-(2-(dimethylamino)ethyl)-2,2-bis(4-(trifluoromethyl)benzyl)-propanamide] | 5 | 15 | 35 | 329 | 10 |  |  |  |  |  |  |  |  | 
CN1CCN(C(=O)C(CN)(Cc2ccc(C(C)(C)C)cc2)Cc2ccc(C(C)(C)C)cc2)CC1 [Compound 29, 3-amino-2,2-bis(4-tert-butylbenzyl)-1-(4-methylpiperazin-1-yl)propan-1-one] | 10 | 5 | 10 | 241 | 10 |  |  |  |  |  |  |  |  | 
Cc1cc(C)cc(CC(CN)(Cc2cc(C)cc(C)c2)C(=O)N2CCN(C)CC2)c1 [Compound 30, 3-amino-2,2-bis(3,5-dimethyl-benzyl)-1-(4-methylpiperazin-1-yl)propan-1-one] | 200 | 35 | 200 | > 1000 | > 200 |  |  |  |  |  |  |  |  | 
CN1CCN(C(=O)C(CN)(CCCc2ccccc2)CCCc2ccccc2)CC1 [Compound 31, 2-(aminomethyl)-1-(4-methyl-piperazin-1-yl)-5-phenyl-2-(3-phenylpropyl)pentan-1-one] | 200 | 200 | 200 | > 1000 | 200 |  |  |  |  |  |  |  |  | 
CN1CCN(C(=O)C(CN)(Cc2ccc3ccccc3c2)Cc2ccc3ccccc3c2)CC1 [Compound 32, 3-amino-1-(4-methylpiperazin-1-yl)-2,2-bis(naphthalen-2-ylmethyl)propan-1-one] | 5 | 10 | 15 | 225 | 10 |  |  |  |  |  |  |  |  | 
CN1CCN(C(=O)C(CN)(Cc2ccc(C(F)(F)F)cc2)Cc2ccc(C(F)(F)F)cc2)CC1 [Compound 33, 3-amino-1-(4-methylpiperazin-1-yl)-2,2-bis(4-(trifluoromethyl)benzyl)propan-1-one] | 10 | 50 | 50 | 376 | 35 |  |  |  |  |  |  |  |  | 
CN(C)CCN1CCN(C(=O)C(CN)(Cc2ccc(C(C)(C)C)cc2)Cc2ccc(C(C)(C)C)cc2)CC1 [Compound 34, 3-amino-2,2-bis(4-tert-butylbenzyl)-1-(4-(2-(dimethylamino)ethyl)piperazin-1-yl)propan-1-one] | 10 | 10 | 10 | 252 | 10 |  |  |  |  |  |  |  |  | 
CN(C)CCN1CCN(C(=O)C(CN)(CCCc2ccccc2)CCCc2ccccc2)CC1 [Compound 36, 2-(aminomethyl)-1-(4-(2-(dimethyl-amino)ethyl)piperazin-1-yl)-5-phenyl-2-(3-phenylpropyl)pentan-1-one] | 50 | 50 | 200 | > 1000 | 200 |  |  |  |  |  |  |  |  | 
CN(C)CCN1CCN(C(=O)C(CN)(Cc2ccc3ccccc3c2)Cc2ccc3ccccc3c2)CC1 [Compound 37, 3-amino-1-(4-(2-(dimethylamino)ethyl)piperazin-1-yl)-2,2-bis(naphthalen-2-ylmethyl)propan-1-one] | 2.5 | 10 | 35 | 301 | 15 |  |  |  |  |  |  |  |  | 
CN(C)CCN1CCN(C(=O)C(CN)(Cc2ccc(C(F)(F)F)cc2)Cc2ccc(C(F)(F)F)cc2)CC1 [Compound 38, 3-amino-1-(4-(2-(dimethylamino)ethyl)piperazin-1-yl)-2,2-bis(4-(trifluoromethyl)benzyl)propan-1-one] | 5 | 50 | 100 | 862 | 35 |  |  |  |  |  |  |  |  | 
CN1CCN(C(=O)C(CN)(CCCc2ccccc2)CCCc2ccccc2)CC1 [Entry 5a] |  |  |  |  |  | 315 | 315 | 315 | > 1000 µg/mL | 315 |  |  |  | 
CN1CCN(C(=O)C(CN)(Cc2ccc(C(F)(F)F)cc2)Cc2ccc(C(F)(F)F)cc2)CC1 [Entry 5b] |  |  |  |  |  | 14 | 70 | 70 | 525 µM | 49 | 38 | 7.5 | 7.5 | 11
CN(C)CCNC(=O)C(CN)(CCCc1ccccc1)CCCc1ccccc1 [Entry 6a] |  |  |  |  |  | 56 | 56 | 160 | 507 µM | 56 | 9.1 | 9.1 | 3.2 | 9.1
